These results are taken from patent US8377934B2, “Use of stilbene derivatives for treatment and prevention of aquatic mold infections” (State of Israel, Ministry of Agriculture & Rural …, priority 2006, dated 2013).

Converted amounts (≈) assume the structure as drawn. Read-outs that look alike come from different tables or passages of the source.

The subject of one data set is S. parasitica. Description: In vitro susceptibility of S. parasitica in Table 4. The format is cell-based, Saprolegnia parasitica. The note with it: for MIC: Saprolegnia parasitica. The method, then:
The in vitro susceptibility of Saprolegnia parasitica T-1 and S. parasitica CBS 540.67 to various compounds was determined by the agar-dilution and broth macrodilution methods.
(§1) Two methods were used, each suitable for a different phase of the asexual life cycle of Saprolegnia spp.: i) the broth macrodilution method, for determination of susceptibility of zoospores and cysts; and ii) the agar-dilution method for determination of susceptibility of filamentous hyphae. Each compound was tested three times in each method. Malachite Green was used as positive control.
(§2) This method is a modification of the method used for molds according to EUCAST 7.1 (European Committee on Antibiotic Susceptibility Testing) and CLSI/NCCLS M27-A2 (Clinical Laboratory Standards Institute/National Committee for Clinical Laboratory Standards). For inoculum preparation, S. parasitica isolates were cultured on GP-PS for 7 days with sterile clover seeds at 18° C. Clover seeds (˜20) covered with mycelium were removed and added to 40 ml of RPMI-1640 broth medium (Sigma; prepared according to NCCLS instructions) and incubated at 18° C. for 4-7 days. Cysts and zoospores free from hyphae were collected, and an inoculum of ˜10^3 CFU/ml as measured by hemacytometer counting, was prepared in RPMI. Fluorescent Brightener 28 stock solution was prepared by adding 40% KOH gradually to a 10 mg/ml solution in water, until it was clear, then it was filtered twice through a 0.2 μm cellulose acetate nonpyrogenic sterile filter (Schleicher & Schuell, Dassel, Germany).
Twofold serial dilutions of the resulting stock solutions were set in RPMI-1640 medium in a volume of 0.1 ml. Final drug concentrations in the test tubes ranged from 1×10^4 to 0.01 mg/L. Inoculum of 0.9 ml was added to each of a sterile tube containing 0.1 ml of the serially diluted drug. Two tubes containing drug-free medium and two tubes containing drug-free inoculum were used as controls. The inoculated tubes were incubated at room temperature (15-20° C.) for 24 h. The growth in each tube was then evaluated visually.
This method is a modification of the method presented by Bailey (Bailey, T. A. (1983) Prog. Fish Cult. 45:24-27), and was used for the susceptibility testing of Saprolegnia hyphae. Twofold serial dilutions were prepared in double distillated sterile water with final drug concentrations ranging from 10,000 to 0.01 mg/L in a final volume of 1.0 ml. Melted (56° C.) RPMI-1640 agar medium (Sigma) was prepared according to NCCLS instructions, and then added to each tube containing drug or water control. The mixture was vortexed, and poured into small plates. After agar solidification a small measured piece, taken from a 7-10 day old culture of S. parasitica T-1 on GP-PS medium was placed upside down on each plate. The plates were incubated at room temperature (15-20° C.) for 24 h.

Data set [1] concerns S. parasitica T-1. Description: Broth macrodilution susceptibility testing (zoospores and cysts). The format is cell-based, Saprolegnia parasitica. To be noted: S. parasitica T-1, 24 h, 15-20° C., geometric mean of three tests; for MIC: Saprolegnia parasitica, read-out: MIC, Macrodilution. As for the experimental part: as §1
as §2, with “Clover seeds (˜20) covered with mycelium were removed and added to 40 ml of RPMI-1640 broth medium (Sigma; prepared according to NCCLS instructions) and incubated at 18° C. for 4-7 days.” left out
(§3) Final drug concentrations in the test tubes ranged from 1×10^4 to 0.01 mg/L. Inoculum of 0.9 ml was added to each of a sterile tube containing 0.1 ml of the serially diluted drug. Two tubes containing drug-free medium and two tubes containing drug-free inoculum were used as controls. The inoculated tubes were incubated at room temperature (15-20° C.) for 24 h. The growth in each tube was then evaluated visually.

The subject of data set [2] is S. parasitica CBS 540.67. The description is as above. The format is cell-based, Saprolegnia parasitica. The note with it: S. parasitica CBS 540.67, 24 h, 15-20° C., geometric mean of three tests; for MIC: Saprolegnia parasitica, CBS540, read-out: MIC, Macrodilution. The method, then:
as §1
as §2, with “Clover seeds (˜20) covered with mycelium were removed and added to 40 ml of RPMI-1640 broth medium (Sigma; prepared according to NCCLS instructions) and incubated at 18° C. for 4-7 days.” left out
as §3

The test system of a further data set is tilapia. Description: in vivo. The method, then:
(§4) LC50 values were determined by static short-term tests as a measure of the relative acute lethal toxicity for tilapia (Standard methods for the evaluation of water and wastewater (1985) 16th ed. American Public Health Association, Washington, D.C. p. 689-819).
(§5) Hybrid tilapia (Oreochromis niloticus X Oreochromis aureus) having an average weight of 20 g, were kept in 100 liter polyethylene tanks at a density of 1 fish per 10 liters, at a constant temperature of 21° C. for three weeks before the initiation of the experiment by addition of a test compound to each tank. […] For the latter experiments, fish were acclimated to the required temperature for three weeks prior to addition of the test compound to the tank. Fish were treated with 5 different concentrations of each test compound, determined according to the MIC values of each compound.
(§6) Mortality of fish was recorded up to 96 h. Water parameters (O2, NH4^+, NO2^−, pH and Cl^−) were monitored throughout the experiment and were maintained within acceptable limits. The presented results are the mean of two separate experiments.

Data set [3] deals with S. parasitica CBS 540.67. Description: Agar-dilution susceptibility testing (filamentous hyphae). The format is cell-based, Saprolegnia parasitica. To be noted: S. parasitica CBS 540.67, 24 h, 15-20° C., geometric mean of three tests; for MIC: Saprolegnia parasitica, CBS540, read-out: MIC, Agar-dilution.
In data set [4] the test system is S. parasitica T-1. Described as above. The data set is classed as cell-based, Saprolegnia parasitica. The note with it: S. parasitica T-1, 24 h, 15-20° C., geometric mean of three tests; for MIC: Saprolegnia parasitica, read-out: MIC, Agar-dilution. As for the experimental part:
as §1
Twofold serial dilutions were prepared in double distillated sterile water with final drug concentrations ranging from 10,000 to 0.01 mg/L in a final volume of 1.0 ml. […] The mixture was vortexed, and poured into small plates. After agar solidification a small measured piece, taken from a 7-10 day old culture of S. parasitica T-1 on GP-PS medium was placed upside down on each plate. The plates were incubated at room temperature (15-20° C.) for 24 h.

A further data set can be described thus: in vivo. The note with it: hybrid tilapia (Oreochromis niloticus X Oreochromis aureus), in vivo, LC50. The method, then:
as §4, §5, §6

The mark [5] stands for this setting: method and isolate not separated, read-out: MIC.
[6] abbreviates: Table 4 summary, read-out: Activity in vitro (MIC), value.

Consider `C[C@@H]1[C@H](O)[C@@H](C)/C=C/C=C/C=C/C=C/C=C/C=C/C=C/[C@H](O[C@@H]2O[C@H](C)[C@@H](O)[C@H](N)[C@@H]2O)C[C@@H]2O[C@](O)(C[C@@H](O)C[C@@H](O)[C@H](O)CC[C@@H](O)C[C@@H](O)CC(=O)O[C@H]1C)C[C@H](O)[C@H]2C(=O)O` [Amphotericin B], for which the “Activity in vitro (MIC), grade” value in the data set with S. parasitica (Table 4 summary) was “High”. In addition, in the data set on S. parasitica (Table 4 summary), the “Activity in vitro (MIC), value” is recorded as “(0.1-0.5 mg/L)”. The “MIC, Macrodilution” value with S. parasitica T-1 [1] turned out to be 0.5 mg/L (≈ 0.541 µM); against S. parasitica CBS 540.67 [2], 0.25 mg/L (≈ 0.271 µM). In the data set with tilapia (Table 4 summary), the Toxicity result is recorded as “Moderate (moderate = 50-200 ppm)”. In addition, the “MIC, Agar-dilution” value is 2.5 µg/mL (≈ 2.71 µM) against S. parasitica CBS 540.67 [3] and 5 µg/mL (≈ 5.41 µM) with S. parasitica T-1 [4].
Turning to `CCCCCCCCCCCCCCCC[N+](C)(C)C.[Br-]` [CTAB], the “MIC, Macrodilution” value against S. parasitica T-1 [1] and against S. parasitica CBS 540.67 [2] was 5 mg/L in each case. In addition, the “MIC, Agar-dilution” value against S. parasitica CBS 540.67 [3] came to 50 µg/mL; against S. parasitica T-1 [4], 10 µg/mL.
As for `C[C@@H]1CC[C@@]2(OC1)O[C@H]1[C@@H](O)[C@H]3[C@@H]4CC[C@H]5C[C@@H](O[C@@H]6O[C@H](CO)[C@H](O[C@@H]7O[C@H](CO)[C@@H](O)[C@H](O[C@@H]8OC[C@@H](O)[C@H](O)[C@H]8O)[C@H]7O[C@@H]7O[C@H](CO)[C@H](O)[C@H](O[C@@H]8O[C@H](CO)[C@@H](O)[C@H](O)[C@H]8O)[C@H]7O)[C@H](O)[C@H]6O)[C@H](O)C[C@]5(C)[C@H]4CC[C@]3(C)[C@H]1[C@@H]2C` [Digitonin], the MIC in the data set on S. parasitica (setting [5]) was at most 10 µg/mL; in the data set on S. parasitica T-1 [1] it was 2.5 µg/mL (≈ 2.03 µM); in the data set with S. parasitica CBS 540.67 [2], 2.5 µg/mL (≈ 2.03 µM); in the data set with S. parasitica CBS 540.67 [3], 20 µg/mL (≈ 16.3 µM); in the data set with S. parasitica T-1 [4] it was 10 µg/mL (≈ 8.13 µM).
For the molecule `C=CCOC(Cn1ccnc1)c1ccc(Cl)cc1Cl` (stereo not shown) [Enilconazole], the MIC came out at 1 µg/mL (≈ 3.36 µM) in the data set on S. parasitica T-1 [1], 1 µg/mL (≈ 3.36 µM) with S. parasitica CBS 540.67 [2], 5 µg/mL (≈ 16.8 µM) in the data set on S. parasitica CBS 540.67 [3] and 5 µg/mL (≈ 16.8 µM) with S. parasitica T-1 [4].
Regarding `O=S(=O)([O-])c1cc(Nc2nc(Nc3ccccc3)nc(N(CCO)CCO)n2)ccc1C=Cc1ccc(Nc2nc(Nc3ccccc3)nc(N(CCO)CCO)n2)cc1S(=O)(=O)[O-].[Na+].[Na+]` [Fluorescent Brightener 28], the “MIC, Macrodilution” value against S. parasitica T-1 [1] is on record as 1 mg/L; in the data set with S. parasitica CBS 540.67 [2] it was 2 mg/L. In addition, the “MIC, Agar-dilution” value in the data set on S. parasitica CBS 540.67 [3] and against S. parasitica T-1 [4] was 5 µg/mL in each case.
On to `OO` [Hydrogen peroxide], for which the MIC in the data set with S. parasitica (setting [5]) is at most 10 µg/mL; in the data set on S. parasitica (setting [6]) it was 10 µg/mL (≈ 294 µM); with S. parasitica T-1 [1], 10 µg/mL (≈ 294 µM); in the data set on S. parasitica CBS 540.67 [2] it was 8 µg/mL (≈ 235 µM). In the data set on S. parasitica (Table 4 summary), the “Activity in vitro (MIC), grade” value is recorded as “High”. The Toxicity result with tilapia (in vivo) is recorded as “Moderate (key: High: high = 50 ppm; Moderate: moderate = 50-200 ppm; Low: low = >1000 ppm)”. Moreover, in “in vivo”, the LC50 came to 75 µg/mL (≈ 2200 µM).
In the case of `O=[N+]([O-])C(Br)(CO)CO` [Pyceze ®], the MIC with S. parasitica (setting [6]) worked out at 100 µg/mL (≈ 500 µM); in the data set on S. parasitica T-1 [1], 100 µg/mL (≈ 500 µM); in the data set on S. parasitica CBS 540.67 [2] it was 100 µg/mL (≈ 500 µM); in the data set on S. parasitica CBS 540.67 [3] it was 200 µg/mL (≈ 1000 µM); with S. parasitica T-1 [4], 100 µg/mL (≈ 500 µM). In the data set on tilapia (Table 4 summary), the Toxicity result was “Moderate (moderate = 50-200 ppm)”. Also, in the data set with tilapia (tilapia LC50 versus S. parasitica MIC), the “LC50 values compared with respective MIC values” is listed as “lower, similar or insignificantly different”.
With `CCCCCCCCCCCCOS(=O)(=O)[O-].[Na+]` [SDS, Sodium dodecylsulfate], the MIC with S. parasitica T-1 [1] worked out at 100 µg/mL; in the data set on S. parasitica CBS 540.67 [2], 250 µg/mL; in the data set on S. parasitica CBS 540.67 [3], 500 µg/mL; with S. parasitica T-1 [4] it was 500 µg/mL.
In the case of `[Cl-].[Na+]` [Sodium chloride], in the data set on S. parasitica (Table 4 summary), the “Activity in vitro (MIC), value” is listed as “Low (30,000 mg/L”. For the same molecule, the “MIC, Macrodilution” value in the data set on S. parasitica T-1 [1] and in the data set with S. parasitica CBS 540.67 [2] was 30,000 mg/L throughout.
On to `O=C([O-])[O-].O=C([O-])[O-].OO.OO.OO.[Na+].[Na+].[Na+].[Na+]` [Sodium percarbonate], for which, in the data set on S. parasitica (Table 4 summary), the “Activity in vitro (MIC), grade” value is listed as “High” and the “Activity in vitro (MIC), value” is on record as “(10 mg/L)”. The “MIC, Macrodilution” value in the data set on S. parasitica T-1 [1] came to 5 mg/L. Besides, in the data set with S. parasitica CBS 540.67 [2], the “MIC, Macrodilution” value is given as 2.5 mg/L. The Toxicity entry in the data set with tilapia (Table 4 summary) is “High (in (high = 50 ppm)”.
For Triton X-100, the “MIC, Macrodilution” value came out at 50 mg/L against S. parasitica T-1 [1] and 100 mg/L in the data set with S. parasitica CBS 540.67 [2]. Also, the “MIC, Agar-dilution” value with S. parasitica CBS 540.67 [3] and against S. parasitica T-1 [4] was 200 µg/mL throughout.
In the case of Tween ® 80, the “MIC, Macrodilution” value against S. parasitica T-1 [1] and with S. parasitica CBS 540.67 [2] was 100 mg/L throughout. Moreover, the “MIC, Agar-dilution” value in the data set with S. parasitica CBS 540.67 [3] and with S. parasitica T-1 [4] was 200 µg/mL throughout.
